Reference: BigSolDB 2.1

N[C@@H](CC(=O)N1CCn2c(nnc2C(F)(F)F)C1)Cc1cc(F)c(F)cc1F
Details	solubility (mole fraction)
in THF, 278.15 K	0.0212
in THF, 283.15 K	0.0274
in THF, 288.15 K	0.0322
in THF, 293.15 K	0.0363
in THF, 298.15 K	0.0463
in THF, 303.15 K	0.0554
in THF, 308.15 K	0.0625
in THF, 313.15 K	0.0756
in THF, 318.15 K	0.0933
in THF, 323.25 K	0.114
in acetonitrile, 278.15 K	0.0265
in acetonitrile, 283.15 K	0.0354
in acetonitrile, 288.15 K	0.0432
in acetonitrile, 293.15 K	0.0536
in acetonitrile, 298.15 K	0.0576
in acetonitrile, 303.15 K	0.0681
in acetonitrile, 308.15 K	0.0888
in acetonitrile, 313.15 K	0.105
in acetonitrile, 318.15 K	0.128
in acetonitrile, 323.15 K	0.156
in ethanol, 273.15 K	0.00768
in ethanol, 278.15 K	0.0108
in ethanol, 283.15 K	0.0138
in ethanol, 288.15 K	0.0179
in ethanol, 293.15 K	0.0233
in ethanol, 298.15 K	0.0298
in ethanol, 303.15 K	0.0363
in ethanol, 308.15 K	0.0451
in ethanol, 313.15 K	0.0606
in ethanol, 318.15 K	0.078
in ethyl acetate, 278.15 K	0.00986
in ethyl acetate, 283.15 K	0.0117
in ethyl acetate, 288.15 K	0.014
in ethyl acetate, 293.15 K	0.0167
in ethyl acetate, 298.15 K	0.02
in ethyl acetate, 303.15 K	0.0242
in ethyl acetate, 308.15 K	0.0286
in ethyl acetate, 313.15 K	0.0353
in ethyl acetate, 318.15 K	0.0435
in ethyl acetate, 323.15 K	0.0565
in isobutanol, 278.15 K	0.0101
in isobutanol, 283.15 K	0.0123
in isobutanol, 288.15 K	0.014
in isobutanol, 293.15 K	0.0158
in isobutanol, 298.15 K	0.0191
in isobutanol, 303.15 K	0.0216
in isobutanol, 308.15 K	0.0255
in isobutanol, 313.15 K	0.0301
in isobutanol, 318.15 K	0.0334
in isobutanol, 323.15 K	0.0379
in isopentanol, 278.15 K	0.00453
in isopentanol, 283.15 K	0.0054
in isopentanol, 288.15 K	0.00647
in isopentanol, 293.15 K	0.00801
in isopentanol, 298.15 K	0.0104
in isopentanol, 303.15 K	0.0123
in isopentanol, 308.15 K	0.0154
in isopentanol, 313.15 K	0.0184
in isopentanol, 318.15 K	0.0232
in isopentanol, 323.15 K	0.0316
in isopropanol, 273.15 K	0.00439
in isopropanol, 278.15 K	0.00482
in isopropanol, 283.15 K	0.00579
in isopropanol, 288.15 K	0.00703
in isopropanol, 293.15 K	0.00857
in isopropanol, 298.15 K	0.0103
in isopropanol, 303.15 K	0.0122
in isopropanol, 308.15 K	0.0139
in isopropanol, 313.15 K	0.0162
in isopropanol, 318.15 K	0.0188
in methyl acetate, 278.15 K	0.0397
in methyl acetate, 283.15 K	0.05
in methyl acetate, 288.15 K	0.0545
in methyl acetate, 293.15 K	0.063
in methyl acetate, 298.15 K	0.0728
in methyl acetate, 303.15 K	0.0835
in methyl acetate, 308.15 K	0.0954
in methyl acetate, 313.15 K	0.111
in methyl acetate, 318.15 K	0.126
in methyl acetate, 323.15 K	0.139
in n-butanol, 278.15 K	0.0105
in n-butanol, 283.15 K	0.0129
in n-butanol, 288.15 K	0.0141
in n-butanol, 293.15 K	0.0177
in n-butanol, 298.15 K	0.0208
in n-butanol, 303.15 K	0.0243
in n-butanol, 308.15 K	0.0262
in n-butanol, 313.15 K	0.0328
in n-butanol, 318.15 K	0.0382
in n-butanol, 323.15 K	0.0452
in n-propanol, 278.15 K	0.00795
in n-propanol, 283.15 K	0.011
in n-propanol, 288.15 K	0.0123
in n-propanol, 293.15 K	0.0183
in n-propanol, 298.15 K	0.022
in n-propanol, 303.15 K	0.0278
in n-propanol, 308.15 K	0.0387
in n-propanol, 313.1 K	0.0433
in n-propanol, 318.15 K	0.0572
in n-propanol, 323.15 K	0.0804
in sec-butanol, 278.15 K	0.00274
in sec-butanol, 283.15 K	0.00346
in sec-butanol, 288.15 K	0.0047
in sec-butanol, 293.15 K	0.00513
in sec-butanol, 298.15 K	0.00739
in sec-butanol, 303.15 K	0.00958
in sec-butanol, 308.15 K	0.0115
in sec-butanol, 313.15 K	0.0142
in sec-butanol, 318.15 K	0.0194
in sec-butanol, 323.15 K	0.0224
in water, 278.15 K	0.000281
in water, 283.15 K	0.000319
in water, 288.15 K	0.000349
in water, 293.15 K	0.000376
in water, 298.15 K	0.00042
in water, 303.15 K	0.000458
in water, 308.15 K	0.000499
in water, 313.15 K	0.000542
in water, 318.15 K	0.000574
in water, 323.15 K	0.000633
